The text below walks through data of patent US11998539B2, “Substituted aminoquinolones as DGKalpha inhibitors for immune activation” (Bayer Aktiengesellschaft, priority 2019, dated 2024).

For the assay, the target named is DGKα (Homo sapiens (Human), UniProt P23743). The experiment in a line: Human DGKα kinase activity inhibition assay (ADP-Glo). The format is biochemical. To be noted: recombinant full-length human DGKα, 55 μM ATP, 7 μM 1,2-dioleoyl-sn-glycerol, read-out: IC50 values of examples in in vitro human DGKa kinase activity inhibition assays. A digest of the protocol: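 Activity was measured as ADP production, detected by luciferase luminescence after removal of unused ATP. The enzyme was baculovirus-expressed full-length human DGKα with a C-terminal FLAG tag. The substrate was 1,2-dioleoyl-sn-glycerol in detergent micelles, and compounds came from 100× DMSO solutions.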
Sequence of DGKα (P23743 other isoform, or with tags, fused parts or gaps): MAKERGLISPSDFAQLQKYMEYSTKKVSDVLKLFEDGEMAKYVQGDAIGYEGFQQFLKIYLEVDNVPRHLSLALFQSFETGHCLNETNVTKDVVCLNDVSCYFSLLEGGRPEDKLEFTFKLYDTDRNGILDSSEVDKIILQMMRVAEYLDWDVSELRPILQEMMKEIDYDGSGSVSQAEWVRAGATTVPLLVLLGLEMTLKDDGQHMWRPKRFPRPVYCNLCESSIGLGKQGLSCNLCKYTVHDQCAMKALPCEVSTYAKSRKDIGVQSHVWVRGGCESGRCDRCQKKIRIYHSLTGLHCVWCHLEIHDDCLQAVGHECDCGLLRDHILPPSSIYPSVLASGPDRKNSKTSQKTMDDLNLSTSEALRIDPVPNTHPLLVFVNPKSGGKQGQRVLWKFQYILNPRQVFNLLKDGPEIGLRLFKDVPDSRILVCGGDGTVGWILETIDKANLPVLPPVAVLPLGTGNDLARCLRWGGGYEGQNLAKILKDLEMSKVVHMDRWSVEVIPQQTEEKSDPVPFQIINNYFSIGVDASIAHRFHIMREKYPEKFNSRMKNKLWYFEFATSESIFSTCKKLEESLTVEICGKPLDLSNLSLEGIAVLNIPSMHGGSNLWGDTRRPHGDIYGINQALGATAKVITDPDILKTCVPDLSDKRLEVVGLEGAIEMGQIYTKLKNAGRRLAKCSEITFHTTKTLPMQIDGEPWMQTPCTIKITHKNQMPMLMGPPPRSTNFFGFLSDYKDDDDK
`Cn1c(=O)c(C#N)c(N2CCC(c3nc4ccc(Cl)cc4o3)CC2)c2ccccc21` [Example 9, 4-[4-(6-chloro-1,3-benzoxazol-2-yl)piperidin-1-yl]-1-methyl-2-oxo-1,2-dihydroquinoline-3-carbonitrile]: the IC50 came out at 0.0033 µM.

Turning to `Cc1cccc(-c2nnc(C3CCN(c4c(C#N)c(=O)n(C)c5ccccc45)CC3)o2)c1` [Example 353, 1-methyl-4-{4-[5-(3-methylphenyl)-1,3,4-oxadiazol-2-yl]piperidin-1-yl}-2-oxo-1,2-dihydroquinoline-3-carbonitrile], the IC50 was 0.254 µM.

Turning to `COCCNc1cc2c(cc1C)c(N1CCC(c3nc4cc(C)ccc4o3)CC1)c(C(N)=O)c(=O)n2C` [Example 552, 7-[(2-methoxyethyl)amino]-1,6-dimethyl-4-[4-(5-methyl-1,3-benzoxazol-2-yl)piperidin-1-yl]-2-oxo-1,2-dihydroquinoline-3-carboxamide], the IC50 was 0.0016 µM.

On to `COc1ccc(C2CCN(c3c(C#N)c(=O)n(C)c4cc(N5CCCC5=O)ccc34)CC2)cc1` [Example 96, 4-[4-(4-methoxyphenyl)piperidin-1-yl]-1-methyl-2-oxo-7-(2-oxopyrrolidin-1-yl)-1,2-dihydroquinoline-3-carbonitrile], for which the IC50 came to 0.02 µM.

Turning to `COc1ccc(C2CCN(c3c(C(N)=O)c(=O)n(C)c4ccccc34)CC2)cc1` [Example 112, 4-[4-(4-methoxyphenyl)piperidin-1-yl]-1-methyl-2-oxo-1,2-dihydroquinoline-3-carboxamide], the IC50 came out at 0.0045 µM.

As for `COCCc1ccc2nc(C3CCN(c4c(C#N)c(=O)n(C)c5ccccc45)CC3)oc2c1` [Example 284, 4-{4-[6-(2-methoxyethyl)-1,3-benzoxazol-2-yl]piperidin-1-yl}-1-methyl-2-oxo-1,2-dihydroquinoline-3-carbonitrile], the IC50 came to 0.0093 µM.

Take `COC1(c2nc3ccccc3o2)CCN(c2c(C(N)=O)c(=O)n(C)c3ccccc23)CC1` [Example 489, 4-[4-(1,3-benzoxazol-2-yl)-4-methoxypiperidin-1-yl]-1-methyl-2-oxo-1,2-dihydroquinoline-3-carboxamide]: the IC50 was 0.0075 µM.

Turning to `Cn1c(=O)c(C#N)c(N2CCC(c3cccc(F)c3)CC2)c2ccccc21` [Example 62, 4-[4-(3-fluorophenyl)piperidin-1-yl]-1-methyl-2-oxo-1,2-dihydroquinoline-3-carbonitrile], the 50% inhibitory concentration (IC50) was 0.038 µM.

Turning to `Cc1ccc2oc(C3(C)CCN(c4c(C#N)c(=O)n(C)c5cc(OC6CCC6)ccc45)CC3)nc2c1` [Example 247, 7-(cyclobutyloxy)-1-methyl-4-[4-methyl-4-(5-methyl-1,3-benzoxazol-2-yl)piperidin-1-yl]-2-oxo-1,2-dihydroquinoline-3-carbonitrile], the 50% inhibitory concentration (IC50) came to 0.0069 µM.

Turning to `Cc1ccc2oc(C3CCN(c4c(C#N)c(=O)n(C)c5cc(OCC(N)=O)ccc45)CC3)nc2c1` [Example 413, 2-({3-cyano-1-methyl-4-[4-(5-methyl-1,3-benzoxazol-2-yl)piperidin-1-yl]-2-oxo-1,2-dihydroquinolin-7-yl}oxy)acetamide], the IC50 was determined as 0.001 µM.

With `Cc1ccc2oc(C3CCN(c4c(C#N)c(=O)n(C)c5ccc(OCC(C)(F)F)cc45)CC3)nc2c1` [Example 406, 6-(2,2-difluoropropoxy)-1-methyl-4-[4-(5-methyl-1,3-benzoxazol-2-yl)piperidin-1-yl]-2-oxo-1,2-dihydroquinoline-3-carbonitrile], the IC50 came to 0.036 µM.

In the case of `Cn1c(=O)c(C#N)c(N2CCC(c3cccc(Cl)c3)CC2)c2ccccc21` [Example 325, 4-[4-(3-chlorophenyl)piperidin-1-yl]-1-methyl-2-oxo-1,2-dihydroquinoline-3-carbonitrile], the IC50 stood at 0.026 µM.

In the case of `Cc1ccc2oc(C3(C)CCN(c4c(C#N)c(=O)n(C)c5c(C6COC6)cccc45)CC3)nc2c1` [Example 245, 1-methyl-4-[4-methyl-4-(5-methyl-1,3-benzoxazol-2-yl)piperidin-1-yl]-8-(oxetan-3-yl)-2-oxo-1,2-dihydroquinoline-3-carbonitrile], the IC50 came out at 0.0059 µM.

For `Cc1ccccc1-c1noc(C2CCN(c3c(C#N)c(=O)n(C)c4cc(O)c(Br)cc34)CC2)n1` [Example 531, 6-bromo-7-hydroxy-1-methyl-4-{4-[3-(2-methylphenyl)-1,2,4-oxadiazol-5-yl]piperidin-1-yl}-2-oxo-1,2-dihydroquinoline-3-carbonitrile], the IC50 came to 0.0081 µM.

For the compound `Cc1ccc2c(N3CCC(C)(c4nc5ccccc5o4)CC3)c(C#N)c(=O)n(C)c2c1` [Example 218, 4-[4-(1,3-benzoxazol-2-yl)-4-methylpiperidin-1-yl]-1,7-dimethyl-2-oxo-1,2-dihydroquinoline-3-carbonitrile], the IC50 came to 0.0006 µM.

As to `Cc1ccc2oc(C3(C)CCN(c4c(C#N)c(=O)n(C)c5cc(C(F)(F)F)ccc45)CC3)nc2c1` [Example 290, 1-methyl-4-[4-methyl-4-(5-methyl-1,3-benzoxazol-2-yl)piperidin-1-yl]-2-oxo-7-(trifluoromethyl)-1,2-dihydroquinoline-3-carbonitrile], the IC50 came to 0.01 µM.

Regarding `Cc1ccc2oc(C3(C)CCN(c4c(C#N)c(=O)n(C)c5c(Br)cccc45)CC3)nc2c1` [Example 158, 8-bromo-1-methyl-4-[4-methyl-4-(5-methyl-1,3-benzoxazol-2-yl)piperidin-1-yl]-2-oxo-1,2-dihydroquinoline-3-carbonitrile], the IC50 was determined as 0.304 µM.

For `Cn1c(=O)c(C#N)c(N2CCC(c3cccc4occc34)CC2)c2ccccc21` [Example 101, 4-[4-(1-benzofuran-4-yl)piperidin-1-yl]-1-methyl-2-oxo-1,2-dihydroquinoline-3-carbonitrile], the half-maximal inhibitory concentration (IC50) was 0.012 µM.

With `Cc1nc2cc(C3CCN(c4c(C#N)c(=O)n(C)c5ccccc45)CC3)ccc2o1` [Example 345, 1-methyl-4-[4-(2-methyl-1,3-benzoxazol-5-yl)piperidin-1-yl]-2-oxo-1,2-dihydroquinoline-3-carbonitrile], the IC50 worked out at 0.038 µM.

On to `CNC(=O)c1c(N2CCC(C)(c3nc4ccccc4o3)CC2)c2ccccc2n(C)c1=O` [Example 449, 4-[4-(1,3-benzoxazol-2-yl)-4-methylpiperidin-1-yl]-N,1-dimethyl-2-oxo-1,2-dihydroquinoline-3-carboxamide], for which the IC50 turned out to be 0.013 µM.

In the case of `Cn1c(=O)c(C#N)c(N2CCC(c3cccc(NC(=O)c4ccccc4)c3)CC2)c2ccccc21` [Example 76, N-{3-[1-(3-cyano-1-methyl-2-oxo-1,2-dihydroquinolin-4-yl)piperidin-4-yl]phenyl}benzamide], the IC50 was 0.05 µM.

As for `Cc1ccccc1-c1nnc(C2CCN(c3c(C(N)=O)c(=O)n(C)c4ccccc34)CC2)o1` [Example 461, 1-methyl-4-{4-[5-(2-methylphenyl)-1,3,4-oxadiazol-2-yl]piperidin-1-yl}-2-oxo-1,2-dihydroquinoline-3-carboxamide], the IC50 is 0.077 µM.

Turning to `Cc1cccc(-n2ccc(C3CCN(c4c(C(N)=O)c(=O)n(C)c5ccccc45)CC3)n2)c1` [Example 472, 1-methyl-4-{4-[1-(3-methylphenyl)-1H-pyrazol-3-yl]piperidin-1-yl}-2-oxo-1,2-dihydroquinoline-3-carboxamide], the IC50 was 0.0067 µM.
